Here are results for 32 compounds from patent publication US8916599B2, “1H-benz imidazole-5-carboxamides as anti-inflammatory agents” (Orexo AB, priority 2008, dated 2014).

Structures are written as SMILES.

In the assay the target is T1, recombinant human mPGES-1 (Homo sapiens, UniProt O14684).
T1 construct: made in house; host or cells: Rosetta E. coli (microsomal/membrane fraction)
T1 sequence (O14684 1-152): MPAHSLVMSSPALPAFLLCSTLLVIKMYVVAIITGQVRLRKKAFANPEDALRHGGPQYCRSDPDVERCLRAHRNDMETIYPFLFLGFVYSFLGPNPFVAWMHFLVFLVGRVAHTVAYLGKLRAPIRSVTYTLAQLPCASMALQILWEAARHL
The assay is described as follows: mPGES-1 inhibition test (microsomes, PGH2 substrate, HTRF detection of PGE2). The conditions noted are these: inhibition of mPGES-1 at 10 μM. The assay is classed as biochemical. In outline: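 Bacterial microsomes with GSH-containing phosphate buffer at pH 7.4 are exposed to test compounds for 25 minutes before a one-minute PGH2 conversion. The quenched, 750-fold diluted mixture is analysed by time-resolved FRET for PGE2.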
In general terms: TR-FRET usually uses a lanthanide donor and a delayed reading to cut background.
For orientation: inhibition means the relative decrease from the control value, in per cent. As to `Cn1c(Nc2c(Cl)cccc2Cl)nc2cc(C(=O)NCc3ccc(C(F)(F)F)cn3)ccc21` [Example 246, 2-(2,6-Dichloro-phenylamino)-1-methyl-1H-benzimidazole-5-carboxylic acid (5-trifluoromethyl-pyridin-2-ylmethyl)-amide], the inhibition at 10 µM came out at 100%.
The value for `Cc1ccc(Cl)c(Nc2nc3cc(C(=O)Nc4ccc(Br)cc4)ccc3[nH]2)c1Cl` [Example 322, 2-(2,6-Dichloro-3-methyl-phenylamino)-1H-benzimidazole-5-carboxylic acid (4-bromo-phenyl)-amide] was 100%; that for `Cc1cc(NC(=O)c2cc3nc(Nc4c(Cl)cccc4Cl)n(C)c3cc2F)ncc1Cl` [Example 127, 2-(2,6-Dichloro-phenylamino)-6-fluoro-1-methyl-1H-benzimidazole-5-carboxylic acid (5-chloro-4-methyl-pyridin-2-yl)-amide] was 100%.
`O=C(NC1CCC(C(F)(F)F)CC1)c1ccc2[nH]c(Nc3c(Cl)cccc3Cl)nc2c1` (centres unmarked) [Example 230, 2-(2,6-Dichloro-phenylamino)-1H-benzimidazole-5-carboxylic acid (4-trifluoromethyl-cyclohexyl)-amide]: the inhibition at 10 µM came out at 99%.
The value for `Cc1cccc(NC(=O)c2ccc3[nH]c(Nc4c(Cl)cccc4Cl)nc3c2)c1` [Example 4, 2-(2,6-Dichloro-phenylamino)-1H-benzimidazole-5-carboxylic acid m-tolylamide] was 100%; that for `CC(C)(C)[C@H]1CC[C@@H](NC(=O)c2cc3nc(Nc4c(Cl)cccc4Cl)[nH]c3cc2F)CC1` [Example 374, N-((1s,4s)-4-tert.-Butylcyclohexyl)-2-(2,6-dichlorophenylamino)-6-fluoro-1H-benzimidazole-5-carboxamide] was 100%; that for `C[C@@H]1CCC[C@@H](NC(=O)c2cc3nc(Nc4c(Cl)cccc4Cl)n(C)c3cc2F)C1` [Example 442, 2-(2,6-Dichlorophenylamino)-6-fluoro-1-methyl-N-((1R,3R)-3-methylcyclohexyl)-1H-benzimidazole-5-carboxamide] was 99%.
`Cn1c(Nc2ccc(F)cc2C(F)(F)F)nc2cc(C(=O)Nc3ccc(Br)cc3)ccc21` [Example 385, N-(4-Bromophenyl)-2-(4-fluoro-2-trifluoromethyl-phenylamino)-1-methyl-1H-benzimidazole-5-carboxamide]: the inhibition at 10 µM was found to be 99%.
The value for `Cn1c(Nc2c(Cl)cccc2Cl)nc2cc(C(=O)NCc3ncccc3F)c(F)cc21` [Example 536, 2-(2,6-Dichlorophenylamino)-6-fluoro-N-((3-fluoropyridin-2-yl)methyl)-1-methyl-1H-benzimidazole-5-carboxamide] was 89%; that for `O=C(NCC1CCCOC1)c1ccc2[nH]c(Nc3c(Cl)cccc3Cl)nc2c1` (centres unmarked) [Example 227, 2-(2,6-Dichloro-phenylamino)-1H-benzimidazole-5-carboxylic acid (tetrahydro-pyran-3-ylmethyl)-amide] was 77%; that for `CCCC[C@H](C)NC(=O)c1cc2nc(Nc3c(Cl)cccc3Cl)n(C)c2cc1F` [Example 450, (S)-2-(2,6-Dichlorophenylamino)-6-fluoro-N-(hexan-2-yl)-1-methyl-1H-benzimidazole-5-carboxamide] was 99%.
The value for `CC1CCC(NC(=O)c2ccc3[nH]c(Nc4c(Cl)cccc4Cl)nc3c2)CC1` (centres unmarked) [Example 215, 2-(2,6-Dichloro-phenylamino)-1H-benzimidazole-5-carboxylic acid (4-methyl-cyclohexyl)-amide] was 96%; that for `CC1CCC(NC(=O)c2ccc3c(c2)nc(Nc2c(Cl)cccc2Cl)n3C)CC1` (centres unmarked) [Example 239, 2-(2,6-Dichloro-phenylamino)-1-methyl-1H-benzimidazole-5-carboxylic acid (4-methyl-cyclohexyl)-amide] was 96%.
As to `COc1cc2[nH]c(Nc3c(Cl)cc(F)cc3Cl)nc2cc1C(=O)Nc1ccc(Br)cc1` [Example 581, 2-(2,6-Dichloro-4-fluoro-phenylamino)-6-methoxy-N-(4-bromo-phenyl)-1H-benzimidazole-5-carboxamide], the inhibition at 10 µM came out at 100%.
Turning to `O=C(Nc1cc(Cl)ccn1)c1ccc2c(c1)nc(Nc1c(Cl)cccc1Cl)n2CCCO` [Example 263, 2-(2,6-Dichloro-phenylamino)-1-(3-hydroxy-propyl)-1H-benzimidazole-5-carboxylic acid (4-chloro-pyridin-2-yl)-amide], the inhibition at 10 µM is 93%.
For `Cn1c(Nc2c(Cl)cccc2Cl)nc2cc(C(=O)NC3CCCCC3)cc(Br)c21` [Example 326, 7-Bromo-2-(2,6-dichloro-phenylamino)-1-methyl-1H-benzimidazole-5-carboxylic acid cyclohexylamide], the inhibition at 10 µM turned out to be 96%.
As for `O=C(Nc1nc2c(s1)CCCC2)c1ccc2[nH]c(Nc3c(Cl)cccc3Cl)nc2c1` [Example 79, 2-(2,6-Dichloro-phenylamino)-1H-benzimidazole-5-carboxylic acid (4,5,6,7-tetrahydro-benzothiazol-2-yl)-amide], the inhibition at 10 µM amounted to 100%.
On to `Cc1cc(NC(=O)c2ccc3nc(Nc4c(Cl)cccc4Cl)[nH]c3c2)cc(Cl)n1` [Example 198, 2-(2,6-Dichloro-phenylamino)-3H-benzimidazole-5-carboxylic acid (2-chloro-6-methyl-pyridin-4-yl)-amide], for which the inhibition at 10 µM stood at 100%.
`Cn1c(CNC(=O)c2cc3nc(Nc4c(Cl)cccc4Cl)n(C)c3cc2F)nc2ccccc21` [Example 563, 2-(2,6-Dichlorophenylamino)-6-fluoro-1-methyl-N-((1-methyl-1H-benzo[d]imidazol-2-yl)methyl)-1H-benzimidazole-5-carboxamide]: the inhibition at 10 µM turned out to be 75%.
Take `Cc1cc2[nH]c(Nc3c(Cl)cccc3Cl)nc2cc1C(=O)NC1CCC(C)(C)CC1` [Example 123, 2-(2,6-Dichloro-phenylamino)-6-methyl-1H-benzimidazol-5-carboxylic acid (4,4-dimethyl-cyclohexyl)-amide]: the inhibition at 10 µM was 95%.
Take `CCC1CCC(NC(=O)c2cc3nc(Nc4c(Cl)cccc4Cl)n(C)c3cc2F)C1` (centres unmarked) [Example 412, 2-(2,6-Dichlorophenylamino)-N-(3-ethylcyclopentyl)-6-fluoro-1-methyl-1H-benzimidazole-5-carboxamide]: the inhibition at 10 µM worked out at 100%.
For `O=C(NCc1ccccn1)c1ccc2[nH]c(Nc3c(Cl)cccc3Cl)nc2c1` [Example 235, 2-(2,6-Dichloro-phenylamino)-1H-benzimidazole-5-carboxylic acid (pyridin-2-ylmethyl)-amide], the inhibition at 10 µM came out at 79%.
In the case of `C[C@@H]1CCC(NC(=O)c2cc3nc(Nc4c(F)cccc4Cl)n(C)c3cc2F)C1` (stereo partly drawn) [Example 501, 2-(2-Chloro-6-fluorophenylamino)-6-fluoro-1-methyl-N-((3R)-3-methylcyclopentyl)-1H-benzimidazole-5-carboxamide], the inhibition at 10 µM turned out to be 98%.
Take `COc1ccc(NC(=O)c2ccc3nc(Nc4c(Cl)cccc4Cl)[nH]c3c2)nc1` [Example 195, 2-(2,6-Dichloro-phenylamino)-3H-benzimidazole-5-carboxylic acid (5-methoxy-pyridin-2-yl)-amide]: the inhibition at 10 µM came to 92%.
As to `O=C(NC1CCC(F)(F)CC1)c1cc2[nH]c(Nc3c(Cl)cccc3Cl)nc2cc1F` [Example 149, 2-(2,6-Dichloro-phenylamino)-6-fluoro-3H-benzimidazole-5-carboxylic acid (4,4-difluoro-cyclohexyl)-amide], the inhibition at 10 µM is 100%.
For the compound `Cn1c(Nc2c(F)cccc2Cl)nc2cc(C(=O)Nc3ccc(Br)cc3)ccc21` [Example 381, N-(4-Bromophenyl)-2-(2-chloro-6-fluorophenylamino)-1-methyl-1H-benzimidazole-5-carboxamide], the inhibition at 10 µM came to 100%.
With `Cn1c(Nc2cc(S(C)(=O)=O)ccc2Cl)nc2cc(C(=O)Nc3ccc(Br)cc3)ccc21` [Example 526, N-(4-Bromophenyl)-2-(2-chloro-5-(methylsulfonyl)phenylamino)-1-methyl-1H-benzimidazole-5-carboxamide], the inhibition at 10 µM is 93%.
For `Cc1cc2nc(NC(=O)c3ccc4[nH]c(Nc5c(Cl)cccc5Cl)nc4c3)[nH]c2cc1C` [Example 314, 2-(2,6-Dichloro-phenylamino)-1H-benzimidazole-5-carboxylic acid (5,6-dimethyl-1H-benzimidazol-2-yl)-amide], the inhibition at 10 µM is 97%.
The value for `O=C(Nc1ccccc1Cl)c1ccc2[nH]c(Nc3c(Cl)cccc3Cl)nc2c1` [Example 284, 2-(2,6-Dichloro-phenylamino)-1H-benzimidazole-5-carboxylic acid (2-chloro-phenyl)-amide] was 100%; that for `O=C(NC1CCCCC1)c1ccc2nc(Nc3c(Cl)cccc3Cl)[nH]c2c1` [Example 137, 2-(2,6-Dichloro-phenylamino)-3H-benzimidazole-5-carboxylic acid cyclohexylamide] was 100%; that for `Cn1c(Nc2c(F)cccc2F)nc2cc(C(=O)Nc3ccc(Br)cc3)ccc21` [Example 173, 2-(2,6-Difluoro-phenylamino)-1-methyl-1H-benzimidazole-5-carboxylic acid (4-bromo-phenyl)-amide] was 97%.
As for `Cc1cc(C)nc(NC(=O)c2ccc3[nH]c(Nc4ccccc4C(F)(F)F)nc3c2)c1` [Example 118, 2-(2-Trifluoromethyl-phenylamino)-1H-benzimidazole-5-carboxylic acid (4,6-dimethyl-pyridin-2-yl)-amide], the inhibition at 10 µM came out at 80%.
